Active and inactive are the calls of the source. The rule behind the calls is not given here.
How the values were obtained:
Rattus norvegicus [1] = assay: Diuretic activity in normotensive Wistar rat assessed as urinary calcium excretion at 3 mg/kg, po administered via gavage after 8 hrs (reference value: 5.93 to 6.87 mg/dl); type: functional
Rattus norvegicus [2] = assay: Diuretic activity in normotensive Wistar rat assessed as urinary sodium excretion at 3 mg/kg, po administered via gavage after 8 hrs (reference value: 61.82 to 80.81 mmol/L); type: functional
Rattus norvegicus [3] = assay: Diuretic activity in normotensive Wistar rat assessed as urine conductivity at 3 mg/kg, po administered via gavage after 8 hrs (reference value: 19.54 +/- 0.98 mS/cm); type: functional
Rattus norvegicus [4] = assay: Diuretic activity in normotensive Wistar rat assessed as urine pH at 3 mg/kg, po administered via gavage after 8 hrs (reference value: 6.14 to 6.21); type: functional
Rattus norvegicus [5] = assay: Diuretic activity in normotensive Wistar rat assessed as urinary chloride excretion at 3 mg/kg, po administered via gavage after 8 hrs (reference value: 135.10 to 143.70 mmol/L); type: functional
Rattus norvegicus [6] = assay: Diuretic activity in normotensive Wistar rat assessed as urine pH at 20 mg/kg, po administered via gavage after 8 hrs (reference value: 6.14 to 6.21); type: functional
Rattus norvegicus [7] = assay: Diuretic activity in normotensive Wistar rat assessed as urinary calcium excretion at 10 mg/kg, po administered via gavage after 8 hrs (reference value: 5.93 to 6.87 mg/dl); type: functional
Rattus norvegicus [8] = assay: Anti-urolithic activity in spontaneous hypertensive Wistar rats assessed as reduction in CaOx crystal formation in cumulative urine at 10 mg/kg, po administered via gavage in presence of sodium oxalate by Neubauer counting chamber method relative to control; type: functional; parameters: scale not given: the % may be the effect or the level left
Rattus norvegicus [9] = assay: Diuretic activity in normotensive Wistar rat assessed as increase in urinary sodium excretion at 10 mg/kg, po administered via gavage for 7 days; type: functional, organism-based
Rattus norvegicus [10] = assay: Diuretic activity in normotensive Wistar rat assessed as increase in urine volume at 10 mg/kg, po administered via gavage for 7 days; type: functional, organism-based
Rattus norvegicus [11] = assay: Diuretic activity in spontaneous hypertensive Wistar rat assessed as increase in urinary potassium excretion at 10 mg/kg, po administered via gavage for 7 days; type: ADME, organism-based; conditions: in vivo, 168 h
Rattus norvegicus [12] = assay: Diuretic activity in normotensive Wistar rat assessed as urinary potassium excretion at 10 mg/kg, po administered via gavage after 8 hrs (reference value: 22.39 to 24.21 mmol/L); type: ADME, organism-based; conditions: in vivo
Rattus norvegicus [13] = assay: Diuretic activity in normotensive Wistar rat assessed as increase in urinary chloride excretion at 10 mg/kg, po administered via gavage for 7 days; type: functional, organism-based
Rattus norvegicus [14] = assay: Renal protective activity in spontaneous hypertensive Wistar rat assessed as reduction in hypertension-induced glomerular size at 10 mg/kg, po administered via gavage for 7 days by hematoxylin and eosin staining based microscopic analysis; type: functional, organism-based
Rattus norvegicus [15] = assay: Renal protective activity in spontaneous hypertensive Wistar rat assessed as reduction in hypertension-induced mesangial space disarrangement at 10 mg/kg, po administered via gavage for 7 days by hematoxylin and eosin staining based microscopic analysis; type: functional, organism-based
Rattus norvegicus [16] = assay: Anti-urolithic activity in normotensive Wistar rats assessed as reduction in CaOx crystal formation in cumulative urine at 10 mg/kg, po administered via gavage in presence of sodium oxalate by Neubauer counting chamber method relative to control; type: functional; parameters: scale not given: the % may be the effect or the level left
Rattus norvegicus [17] = assay: Diuretic activity in spontaneous hypertensive Wistar rat assessed as decrease in urinary calcium excretion at 10 mg/kg, po administered via gavage for 7 days; type: functional, organism-based
Rattus norvegicus [18] = assay: Diuretic activity in normotensive Wistar rat assessed as urinary sodium excretion at 10 mg/kg, po administered via gavage after 8 hrs (reference value: 61.82 to 80.81 mmol/L); type: functional
Rattus norvegicus [19] = assay: Renal protective activity in spontaneous hypertensive Wistar rat assessed as reduction in hypertension-induced Bowman's capsule thickening at 10 mg/kg, po administered via gavage for 7 days by hematoxylin and eosin staining based microscopic analysis; type: functional, organism-based
Rattus norvegicus [20] = assay: Diuretic activity in normotensive Wistar rat assessed as decrease in urinary calcium excretion at 10 mg/kg, po administered via gavage for 7 days; type: functional, organism-based
Rattus norvegicus [21] = assay: Diuretic activity in spontaneous hypertensive Wistar rat assessed as increase in urinary sodium excretion at 10 mg/kg, po administered via gavage for 7 days; type: functional, organism-based
Rattus norvegicus [22] = assay: In vivo antioxidant activity in Wistar rat model of hypertension-induced oxidative stress assessed as reduction in nitrite level in renal tissue at 10 mg/kg, po administered via gavage for 7 days by Griess reagent based assay; type: functional, organism-based
Rattus norvegicus [23] = assay: Diuretic activity in spontaneous hypertensive Wistar rat assessed as increase in urine volume at 10 mg/kg, po administered via gavage for 7 days; type: functional, organism-based
Rattus norvegicus [24] = assay: Diuretic activity in normotensive Wistar rat assessed as increase in urinary potassium excretion at 10 mg/kg, po administered via gavage for 7 days; type: ADME, organism-based; conditions: in vivo, 168 h
Rattus norvegicus [25] = assay: Diuretic activity in normotensive Wistar rat assessed as urine conductivity at 10 mg/kg, po administered via gavage after 8 hrs (reference value: 19.54 +/- 0.98 mS/cm); type: functional
Rattus norvegicus [26] = assay: Diuretic activity in spontaneous hypertensive Wistar rat assessed as increase in urinary chloride excretion at 10 mg/kg, po administered via gavage for 7 days; type: functional, organism-based
Rattus norvegicus [27] = assay: In vivo antioxidant activity in Wistar rat model of hypertension-induced oxidative stress assessed as reduction in reactive oxygen species generation in renal tissue at 10 mg/kg, po administered via gavage for 7 days by DCFH-DA probe based fluorimetric assay; type: functional, organism-based
Rattus norvegicus [28] = assay: Diuretic activity in normotensive Wistar rat assessed as urinary chloride excretion at 10 mg/kg, po administered via gavage after 8 hrs (reference value: 135.10 to 143.70 mmol/L); type: functional
Rattus norvegicus [29] = assay: Diuretic activity in normotensive Wistar rat assessed as increase in urine volume excretion at 0.1 to 1 mg/kg, po administered via gavage measured up to 8 hrs; type: functional, organism-based
Rattus norvegicus [30] = assay: Diuretic activity in normotensive Wistar rat assessed as modification of urinary sodium excretion at 0.1 to 1 mg/kg, po administered via gavage measured up to 8 hrs; type: functional, organism-based
Rattus norvegicus [31] = assay: Diuretic activity in normotensive Wistar rat assessed as increase in urine volume excretion at 0.1 to 1 mg/kg, ip measured up to 8 hrs; type: functional, organism-based
Rattus norvegicus [32] = assay: Diuretic activity in normotensive Wistar rat assessed as modification of urinary chloride excretion at 0.1 to 1 mg/kg, po administered via gavage measured up to 8 hrs; type: functional, organism-based
Rattus norvegicus [33] = assay: Diuretic activity in normotensive Wistar rat assessed as modification of urinary calcium excretion at 0.1 to 1 mg/kg, po administered via gavage measured up to 8 hrs; type: functional, organism-based
Rattus norvegicus [34] = assay: Diuretic activity in normotensive Wistar rat assessed as modification of urinary potassium excretion at 0.1 to 1 mg/kg, po administered via gavage measured up to 8 hrs; type: ADME, organism-based; conditions: in vivo
[35] = Anti-urolithic activity in synthetic urine assessed as decrease in absorbance at 10 mg/mL relative to control; type: functional; parameters: scale not given: the % may be the effect or the level left
[36] = Anti-urolithic activity in synthetic urine assessed as reduction in CaOx crystal formation at 10 mg/mL in presence of sodium oxalate after 60 mins by Neubauer counting chamber method relative to control; type: functional; parameters: scale not given: the % may be the effect or the level left
[37] = Anti-urolithic activity in synthetic urine assessed as decrease in absorbance at 10 mg/mL after 60 mins relative to control; type: functional; parameters: scale not given: the % may be the effect or the level left
[38] = Anti-urolithic activity in synthetic urine assessed as decrease in absorbance at 10 mg/mL after 30 mins relative to control; type: functional; parameters: scale not given: the % may be the effect or the level left

## N=C(N)NC(=O)c1nc(Cl)c(N)nc1N [AMILORIDE]
Rattus norvegicus [1]
  Activity: 5.7 mg/dL
Rattus norvegicus [2]
  Activity: 117.2 mmol/L
Rattus norvegicus [3]
  Activity: 18.23 mS/cm
Rattus norvegicus [4]
  pH: 6.29
Rattus norvegicus [5]
  Activity: 170.5 mmol/L

## NS(=O)(=O)c1cc(C(=O)O)c(NCc2ccco2)cc1Cl [FUROSEMIDE]
Rattus norvegicus [6]
  pH: 6.12

## NS(=O)(=O)c1cc2c(cc1Cl)NCNS2(=O)=O [HYDROCHLOROTHIAZIDE]
Rattus norvegicus [7]
  Activity: 4.78 to 5.24 mg/dL
Rattus norvegicus [8]
  Activity: 92.9%
Rattus norvegicus [9]
  Activity: Active
Rattus norvegicus [10]
  Activity: Active
Rattus norvegicus [11]
  Activity: Toxic
Rattus norvegicus [12]
  Activity: 41 to 44.8 mmol/L
Rattus norvegicus [13]
  Activity: Active
Rattus norvegicus [14]
  Activity: Active
Rattus norvegicus [15]
  Activity: Active
Rattus norvegicus [16]
  Activity: 89.04%
Rattus norvegicus [17]
  Activity: Active
Rattus norvegicus [18]
  Activity: 175.7 to 185.7 mmol/L
Rattus norvegicus [19]
  Activity: Active
Rattus norvegicus [20]
  Activity: Active
Rattus norvegicus [21]
  Activity: Active
Rattus norvegicus [22]
  Activity: Active
Rattus norvegicus [23]
  Activity: Active
Rattus norvegicus [24]
  Activity: Toxic
Rattus norvegicus [25]
  Activity: 23.62 - 27.3 mS/cm
Rattus norvegicus [26]
  Activity: Active
Rattus norvegicus [27]
  Activity: Active
Rattus norvegicus [28]
  Activity: 279.8 to 286.6 mmol/L

## O=c1c(O)c(-c2ccc(O)cc2)oc2cc(O)cc(O)c12 [KAEMPFEROL]
Rattus norvegicus [29]
  Activity: inactive
Rattus norvegicus [30]
  Activity: inactive
Rattus norvegicus [31]
  Activity: inactive
Rattus norvegicus [32]
  Activity: inactive
Rattus norvegicus [33]
  Activity: inactive
Rattus norvegicus [34]
  Activity: Non-Toxic

## O=C([O-])CC(O)(CC(=O)[O-])C(=O)[O-].[K+].[K+].[K+] [POTASSIUM CITRATE ANHYDROUS]
[35]
  Activity: 81.73%
[36]
  Activity: 65.02%
[37]
  Activity: 64.85%
[38]
  Activity: 70.41%
